Experiments:
[1] = biological target: T1, DAT (Rattus norvegicus (Rat), UniProt P23977); assay: DA release study; type: biochemical
[2] = biological target: T2, SERT (Rattus norvegicus (Rat), UniProt P31652); assay: 5-HT release study; type: biochemical
[3] = biological target: dopamine transporter (DAT) (Rattus norvegicus (Rat), UniProt P23977); assay: Competition radioligand binding, [3H]WIN35428, rat brain membranes; conditions: DA transporter
Text: (§1) Rat brain (Sprague Dawley, 200-250 g) synaptosomes were isolated from midbrain and hindbrain for serotonin transporter assays, striatum for dopamine transporter assays, and hippocampus plus overlying occipital cortex for norepinephrine transporter assays. Radioligands used were: [^3H]Citalopram 81.4 Ci/mmol (PerkinElmer NET1039250UC; Lot No. 2960876). [^3H]WIN35428 82.8 Ci/mmol (PerkinElmer NET1033250UC; Lot No. 2891473). [^3H]Nisoxetine 79.2 Ci/mmol (PerkinElmer NET1084250UC; Lot No. 2970324). Non-specific compounds used were: Citalopram (Tocris Bioscience 1427). JHW007 (Tocris Bioscience 4351). Nomifensine (Abcam ab146004). Test Compounds for the study were: racemic methylone HCl; (R)-methylone HCl; (S)-methylone HCl.
(§2) For membrane preparations, rat brains were dissected, tissue was added to ice-cold lysis buffer (50 mM Tris HCl; 5 mM MgCl2; 5 mM EDTA; protease inhibitor cocktail) and homogenized. The homogenate was centrifuged at 100×g for 2 minutes and the supernatant divided into polypropylene Eppendorf tubes. The supernatants were centrifuged at 17,000×g for 10 minutes at 4° C. to re-pellet the cell lysate. The pellet was resuspended in fresh wash buffer (50 mM Tris-HCl; 5 mM MgCl2; 5 mM EDTA) and centrifuged a third time at 17,000×g for 10 minutes at 4° C. The pellet was resuspended in wash buffer containing 10% sucrose as a cryoprotectant, divided into aliquots (0.3 mL) and stored at −80° C. A sample of the homogenate was analyzed for protein content using the MERCK® BCA assay. On the day of the assay, the membrane preparation was thawed and the pellet resuspended in final assay buffer.
(§3) Competition binding assays were carried out in 96-well polypropylene plates in a final volume of 250 μL per well. To each well was added 150 μL membranes, 50 μL of test compound, non-specific compound or buffer, and 50 μL radioligand solution in buffer. The plate was incubated at 30° C. for 90 minutes with gentle agitation. The incubation was stopped by vacuum filtration onto presoaked (wash buffer with PEI) GF/C filters using a 96-well FILTERMATE™ harvester, followed by 5 washes with ice-cold wash buffer. Filters were then dried under a warm air stream, sealed in polyethylene, scintillation cocktail added, and the radioactivity counted in a WALLAC® TriLux 1450 MicroBeta counter. For each concentration of drug, non-specific binding was subtracted from total binding to give specific binding. Data was fitted using the non-linear curve fitting routines in PRISM® (Graphpad Software Inc) to determine IC50. Ki was subsequently calculated using the ChengPrusoff equation.

[4] = tested on: NET; assay: [3H]Norepinephrine uptake inhibition in rat brain synaptosomes; type: biochemical; conditions: NE
Protocol: (§4) Materials used were: Neurotransmitters [3H]5-HT (PerkinElmer, NET498001MC) [^3H]Dopamine (PerkinElmer, NET673250UC) [^3H]Norepinephrine (PerkinElmer, NET377250UC); Test Compounds Racemic methylone HCl (Merck, M-140); (R)-methylone HCl (Pisgah Labs); (S)-methylone HCl (Pisgah Labs); Reference Compounds Citalopram (Tocris Bioscience 1427). JHW007 (Tocris Bioscience 4351). Nomifensine (Abcam ab146004).
(§5) Synaptosomes were prepared from Sprague Dawley (200-250 g) rat brain regions (hippocampus for NE, striatum for DA and midbrain for 5-HT) using standard protocols. Tissues were dissected, added to sucrose buffer (0.32 M), homogenized with a dounce-homogenizer and centrifuged at 100×g to remove cells and debris. Supernatant was collected and centrifuged 17,000×g for 10 minutes at 4° C. to pellet the synaptosomes. The pellet was resuspended in fresh assay buffer.
(§6) Uptake assays were carried out in 96-well plates in a final volume of 250 μL per well. To each well was added 150 μL synaptosomes, 50 μL test, non-specific compound or buffer alone. The plate was incubated at 30° C. for 30 minutes with gentle agitation. 50 μL radiolabeled neurotransmitter in buffer was then added to each well to initiate the uptake. The plate was incubated at 30° C. for a further 5 minutes with gentle agitation. The incubation was stopped by vacuum filtration onto presoaked GF/C filters using a 96-well FilterMate™ harvester, followed by 3 washes with ice-cold wash buffer. Filters were then dried under a warm air stream, sealed in polyethylene, scintillation cocktail added, and the radioactivity counted in a Wallac® TriLux 1450 MicroBeta counter.
(§7) For each concentration of drug, non-specific uptake was subtracted from total uptake to give specific uptake. Data was fitted using the non-linear curve fitting routines in Prism® (Graphpad Software Inc) to determine IC50.

[5] = biological target: serotonin transporter (SERT) (Rattus norvegicus (Rat), UniProt P31652); assay: Competition radioligand binding, [3H]Citalopram, rat brain membranes; conditions: 5-HT transporter
Text: as §1, §2, §3

[6] = biological target: T1, DAT; assay: [3H]Dopamine uptake inhibition in rat brain synaptosomes; type: biochemical; conditions: DA
Protocol: as §4, §5, §6, §7

[7] = tested on: rat forced swim test (FST); assay: Rat forced swim test (FST); type: in vivo; conditions: 10 mg/kg, IP
Protocol: All FST studies are performed and scored by an experimenter blind to treatment group and according to standard protocols. Briefly, rats are placed in a circular plexiglass container filled with water. Water temperature is maintained at 22-25° C. and changed for every animal. Day 1 (Training) consists of a 15 min acclimation trial, and Day 2 (Testing, 24 h later) consists of the 5 min test. A time sampling procedure is employed where animals are observed every 5 seconds for the duration of the test session (60 counts or 5 minutes) and scored for immobility (defined as the failure to struggle), swimming (defined as a circular movement around the tank), or climbing (defined as an upwards escape behavior). Data are expressed as the percent of the testing session (e.g., the number of immobility counts divided by 60). A p-value less than 0.05 indicates statistical significance after typical statistical analyses (e.g., unpaired t-test or ANOVA).
To determine that the prodrug and/or enantiomer has an antidepressant-like effect and to compare it to methylone, rats are treated with each compound 30 min prior to testing. Additional tests are run 24, 72, 168 hours post-dose or longer.
Racemic methylone (10 mg/kg, IP) has a maximal antidepressant-like effect in the rat forced swim test (FST), reducing immobility by nearly 100% compared to vehicle treated controls. To determine whether one enantiomer of methylone could mimic the robust antidepressant-like effect of racemic methylone, rats were treated with a single dose of racemic methylone, (R)-methylone, (S)-methylone (all 10 mg/kg, IP) or vehicle 30 min before testing in the FST. […] Therefore, all of the activity of methylone appears to be driven by the activity of one enantiomer ((S)-methylone).

[8] = biological target: norepinephrine transporter (NET); assay: Competition radioligand binding, [3H]Nisoxetine, rat brain membranes; conditions: NE transporter
Text: as §1, §2, §3

[9] = biological target: T2, SERT; assay: [3H]5-HT uptake inhibition in rat brain synaptosomes; type: biochemical
Protocol: as §4, §5, §6, §7

[10] = tested on: NET; assay: NE release study; type: biochemical
[11] = tested on: cardiac ion channels; assay: In vitro cardiovascular safety screening test (ion channel panel, overall); type: cell-based, human; conditions: whole panel
Protocol: An in vitro cardiovascular safety screening test was run to investigate the effects of racemic methylone and two methylone stereoisomers ((R)-methylone and (S)-methylone) on selected ion channels critically linked to cardiovascular function and activity.
Electrophysiological assays were conducted to profile three compounds ((R)-methylone, (S)-methylone, or racemic methylone) for activities on the ion channel targets specified below using the Qube electrophysiological platform. Where presented, IC50 values were determined by a non-linear, least squares regression analysis. Reference standards were run as an integral part of each assay to ensure the validity of the results obtained.
Ion Channels tested were Eurofins Panel Part Number: CPROFullQB2DR Voltage-Gated Sodium: HEK-Nav1.5 (Peak), HEK-Nav1.5 (Late, Antagonist) Voltage-Gated Potassium: HEK-Kv4.3/KChIP2, CHO-hERG, CHO-KCNQ1/minK Voltage-Gated Calcium: HEK-Cav1.2 Inward-Rectifying Voltage-Gated Potassium: HEK-Kir2.1.

[12] = self-administration, healthy volunteers; cited from earlier work
[13] = tested on: mouse model of PTSD; conditions: 7.5 mg/kg, 30 minutes prior to extinction training; Young et al. 2015; cited from earlier work

| Compound | EC50 [1] [µM] | EC50 [2] [µM] | IC50 [3] [µM] | Ki ([3]; Cheng-Prusoff) [µM] | IC50 [4] [µM] | IC50 [5] [µM] | Ki ([5]; Cheng-Prusoff) [µM] | IC50 [6] [µM] | Reduction of immobility compared to vehicle treated controls [7] [%] | IC50 [8] [µM] | Ki ([8]; Cheng-Prusoff) [µM] | IC50 [9] [µM] | EC50 [10] [µM] | Effect on the cardiac ion channels tested [11] | Systolic and diastolic blood pressure [12] | Reduced freezing compared to saline injected controls (extinction recall) [13] [%] |
| --- | --- | --- | --- | --- | --- | --- | --- | --- | --- | --- | --- | --- | --- | --- | --- | --- |
| CNC(C)C(=O)c1ccc2c(c1)OCO2 (racemic) [Racemic methylone] | 4.79 | 0.62 | 7.11 | 3.53 | 0.355 | 12.3 | 7.44 | 1.43 | ~100 | 3.1 | 1.46 | 0.811 | 0.33 | do not directly inhibit the activity of cardiac channels |  |  |
| CNC(C)Cc1ccc2c(c1)OCO2 (stereo not shown) [MDMA, 3,4-methylenedioxymethamphetamine, reference compound] |  |  |  |  |  |  |  |  |  |  |  |  |  |  | significant increase | 35 |
